The results in this text go back to ChEMBL document CHEMBL1129998, “Pharmacological options in the treatment of benign prostatic hyperplasia” (J Med Chem, 1997).

Assay [1] concerns the target T1, 3-oxo-5-alpha-steroid 4-dehydrogenase 2 (Homo sapiens, UniProt P31213).
T1 sequence (P31213 whole entry): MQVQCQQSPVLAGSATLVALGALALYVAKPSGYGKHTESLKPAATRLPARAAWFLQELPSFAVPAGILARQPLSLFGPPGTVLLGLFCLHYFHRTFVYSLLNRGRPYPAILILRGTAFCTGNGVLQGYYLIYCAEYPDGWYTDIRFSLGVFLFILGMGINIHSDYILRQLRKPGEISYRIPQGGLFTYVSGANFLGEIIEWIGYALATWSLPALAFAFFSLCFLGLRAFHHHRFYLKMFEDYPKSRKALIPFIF
The assay can be described thus: Binding affinity for human 5-alpha reductase 2 isozyme.

The target of assay [2] is T2, 3-oxo-5-alpha-steroid 4-dehydrogenase 1 (Homo sapiens, UniProt P18405).
T2 sequence (P18405 whole entry): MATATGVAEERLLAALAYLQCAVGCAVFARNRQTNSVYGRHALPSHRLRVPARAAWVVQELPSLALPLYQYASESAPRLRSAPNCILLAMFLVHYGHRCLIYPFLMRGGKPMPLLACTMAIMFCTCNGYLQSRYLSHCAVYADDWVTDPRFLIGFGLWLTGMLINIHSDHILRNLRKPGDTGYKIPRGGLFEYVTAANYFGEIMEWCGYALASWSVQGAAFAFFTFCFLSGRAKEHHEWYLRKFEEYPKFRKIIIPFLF
Kind of assay: Binding affinity for human 5 alpha reductase 1 isozyme.

Assay [3] can be described thus: Binding affinity on human prostatic 5-alpha reductase isozyme.
Assay [4] addresses T3, Steroid 5-alpha-reductase (Rattus norvegicus, UniProt P24008+P31214).
T3 sequence (P24008 whole entry): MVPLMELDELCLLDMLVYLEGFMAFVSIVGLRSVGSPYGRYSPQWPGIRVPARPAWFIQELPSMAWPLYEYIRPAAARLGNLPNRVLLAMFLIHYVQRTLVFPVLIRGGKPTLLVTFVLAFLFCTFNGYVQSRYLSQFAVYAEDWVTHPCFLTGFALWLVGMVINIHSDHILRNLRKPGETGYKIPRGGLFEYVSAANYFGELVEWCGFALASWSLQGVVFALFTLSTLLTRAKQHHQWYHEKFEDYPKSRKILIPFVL
T3 sequence (P31214 whole entry): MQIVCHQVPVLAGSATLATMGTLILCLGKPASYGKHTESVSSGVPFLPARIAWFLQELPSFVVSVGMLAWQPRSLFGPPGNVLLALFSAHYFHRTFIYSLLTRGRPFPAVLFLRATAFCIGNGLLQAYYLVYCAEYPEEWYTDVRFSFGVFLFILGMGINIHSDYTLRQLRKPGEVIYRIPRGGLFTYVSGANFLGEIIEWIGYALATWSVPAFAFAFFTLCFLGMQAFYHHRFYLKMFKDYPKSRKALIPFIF
Kind of assay: Binding affinity on rat 5-alpha reductase isozyme. The format is protein assay.

Assay [5] concerns the target 3 beta-hydroxysteroid dehydrogenase/Delta 5-->4-isomerase type 1 (Homo sapiens, UniProt P14060). Kind of assay: Binding affinity on 3 beta-hydroxysteroid dehydrogenase.
Assay [6] deals with T2, 3-oxo-5-alpha-steroid 4-dehydrogenase 1. Kind of assay: Inhibitory concentration on human 5-alpha reductase 1 isozyme.
Assay [7] addresses T4, Alpha-1A adrenergic receptor (Rattus norvegicus, UniProt P43140).
T4 sequence (P43140 whole entry): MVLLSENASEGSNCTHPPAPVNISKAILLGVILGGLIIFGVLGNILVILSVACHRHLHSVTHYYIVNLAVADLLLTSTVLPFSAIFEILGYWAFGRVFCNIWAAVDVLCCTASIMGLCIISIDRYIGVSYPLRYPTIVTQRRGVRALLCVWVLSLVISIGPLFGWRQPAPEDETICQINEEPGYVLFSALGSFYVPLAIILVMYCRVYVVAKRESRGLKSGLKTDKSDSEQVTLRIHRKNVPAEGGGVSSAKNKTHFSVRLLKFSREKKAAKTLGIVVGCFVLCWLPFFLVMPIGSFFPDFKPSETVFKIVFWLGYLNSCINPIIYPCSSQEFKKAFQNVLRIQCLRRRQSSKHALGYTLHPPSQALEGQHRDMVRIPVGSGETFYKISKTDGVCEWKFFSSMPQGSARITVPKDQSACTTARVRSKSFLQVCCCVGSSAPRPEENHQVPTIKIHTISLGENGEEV
The assay can be described thus: Binding affinity was tested on CEC-pretreated rat hippocampus Alpha-1A adrenergic receptor. Type of assay: tissue-based.

The target in assay [8] is T5, Alpha-1B adrenergic receptor (Rattus norvegicus, UniProt P15823).
T5 sequence (P15823 whole entry): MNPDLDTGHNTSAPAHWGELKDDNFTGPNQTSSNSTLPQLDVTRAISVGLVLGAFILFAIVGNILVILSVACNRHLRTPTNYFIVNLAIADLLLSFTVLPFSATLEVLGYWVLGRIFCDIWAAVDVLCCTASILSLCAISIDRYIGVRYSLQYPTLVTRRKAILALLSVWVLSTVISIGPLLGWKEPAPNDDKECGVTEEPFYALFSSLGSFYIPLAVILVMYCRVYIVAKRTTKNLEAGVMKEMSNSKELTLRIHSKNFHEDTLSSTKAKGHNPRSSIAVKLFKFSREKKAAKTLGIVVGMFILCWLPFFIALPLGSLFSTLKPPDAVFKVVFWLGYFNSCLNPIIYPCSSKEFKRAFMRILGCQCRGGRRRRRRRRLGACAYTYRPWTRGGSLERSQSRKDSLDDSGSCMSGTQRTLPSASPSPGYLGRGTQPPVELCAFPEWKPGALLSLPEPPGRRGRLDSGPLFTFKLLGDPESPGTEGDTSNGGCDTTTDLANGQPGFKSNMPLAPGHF
Kind of assay: Binding affinity was tested on CEC-pretreated rat liver Alpha-1B adrenergic receptor.

For another assay, the system named is Canis familiaris. Kind of assay: In vivo dose (iv) for 50% inhibition of norepinephrine-mediated contraction of proximal urethra (ID50) with the dose (iv) for 25% reduction in systolic blood pressure (ED25) in anesthetized dogs. Type of assay: functional, Canis lupus familiaris, Artery.
Assay [9] has as its target T3, Steroid 5-alpha-reductase. The assay can be described thus: (§1) Binding affinity on rat 5-alpha reductase-1 isozyme. The format is protein assay.
Assay [10] has as its target T1, 3-oxo-5-alpha-steroid 4-dehydrogenase 2. Kind of assay: Inhibitory concentration on human 5-alpha reductase 2 (transfected SW-13 cells).
The target of assay [11] is T6, 3-oxo-5-alpha-steroid 4-dehydrogenase 2 (Rattus norvegicus, UniProt P31214).
T6 sequence (P31214 whole entry): T3 sequence (P31214 whole entry)
The assay can be described thus: Binding affinity on rat 5-alpha reductase-2 isozyme.

In assay [12] the target is T7, 3-oxo-5-alpha-steroid 4-dehydrogenase 1 (Rattus norvegicus, UniProt P24008).
T7 sequence (P24008 whole entry): T3 sequence (P24008 whole entry)
Described as §1.

Some results are limits rather than exact numbers.

Chain of 3 beta-hydroxysteroid dehydrogenase/Delta 5-->4-isomerase type 1 (P14060 whole entry): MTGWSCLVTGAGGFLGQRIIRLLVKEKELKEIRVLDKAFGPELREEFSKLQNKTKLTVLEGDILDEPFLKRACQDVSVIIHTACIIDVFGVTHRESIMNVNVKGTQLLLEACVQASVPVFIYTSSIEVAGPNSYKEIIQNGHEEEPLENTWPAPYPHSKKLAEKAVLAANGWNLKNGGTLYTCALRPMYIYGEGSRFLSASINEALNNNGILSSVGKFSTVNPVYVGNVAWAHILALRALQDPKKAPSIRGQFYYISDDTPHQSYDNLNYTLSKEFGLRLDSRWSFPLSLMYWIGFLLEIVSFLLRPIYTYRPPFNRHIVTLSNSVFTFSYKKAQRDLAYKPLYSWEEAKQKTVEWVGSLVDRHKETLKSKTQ

On to `C[C@]12CCC(=O)C(Cl)=C1NCC1C2CC[C@@]2(C)C1CC[C@@H]2C(=O)Nc1cc(C(F)(F)F)ccc1C(F)(F)F` (some centres not stated), for which, in [1], the IC50 is < 0.1 nM. The compound also had a Ki in assay [2] of 0.2 nM.

For `CC(C)N(C(=O)c1ccc(CCC2CCC(=O)N(C)C2)cc1)C(C)C` (configuration not stated), the Ki in assay [3] and in [4] was > 20000 nM throughout. In turn, `CC(C)(C)CC(C)(C)NC(=O)[C@H]1CCC2C3CNC4=CC(=O)CC[C@]4(C)C3CC[C@@]21C` (some centres not stated) came in with an IC50 in assay [5] of 150 nM.

With `CC1=C2NCC3C(CC[C@@]4(C)C3CC[C@@H]4C(=O)Nc3cc(C(F)(F)F)ccc3C(F)(F)F)[C@@]2(C)CCC1=O` (some centres not stated), in assay [1], the IC50 was < 0.1 nM. The compound also had a Ki in assay [2] of 0.2 nM.

For `O=C(O)c1cc2cc(OCc3ccccc3)ccc2[nH]1`, the Ki in [6] is > 2500 nM. `COc1ccccc1N1CCN(CCCC(=O)c2cccc3c(=O)c(C)c(-c4ccccc4)oc23)CC1`: the IC50 was 1.5 nM in assay [7] and 24 nM in assay [8]. For the same compound, the Ratio with Canis familiaris worked out at 39. The compound `C[C@]12CCC(C(=O)O)=CC1=CCc1cc(Cl)ccc12` came in with a Ki in assay [9] of 1200 nM. In assay [2], `CC(C)(C)NC(=O)[C@H]1CC[C@H]2[C@@H]3CC[C@H]4NC(=O)C=C[C@]4(C)[C@H]3CC[C@]12C` [FINASTERIDE] returned a Ki of 150 nM.

For `CC(C)(C)NC(=O)[C@H]1CCC2C3CCC4=C(C#N)C(=O)CC[C@]4(C)C3CC[C@@]21C` (some centres not stated), inhibition in assay [10] was half-maximal at 2.9 nM (IC50). Consider `CN1C(=O)CC[C@@H]2c3ccc(Cl)cc3CC[C@H]21` [BEXLOSTERIDE], for which the inhibitory constant (Ki) in assay [11] was determined as 10000 nM; in assay [12] it was 8 nM. Regarding `CC(C)(C)CCNC(=O)[C@H]1CCC2C3CNC4=CC(=O)CC[C@]4(C)C3CC[C@@]21C` (some centres not stated), the IC50 in assay [5] turned out to be 8.3 nM.
